# Laboratory results published in publication PMC11674187, “Inhibitory Effects of Cenobamate on Multiple Human Cardiac Ion Channels and Possible Arrhythmogenic Consequences” (Biomolecules, 2024).
# “And” between values parts separate entries of the source, which are not always exact repeats. Equal entries are not always repeated.
# Test system: Ncyte® vCardiomyocytes
# Test: Amphotericin-perforated whole-cell recordings on hiPSC-CM (current clamp and voltage clamp)
# Type: cell-based, human
# Settings: cenobamate 200 µM
# Description: Experiments were performed on HEK293T cell lines with persistent/inducible expression of different human cardiac ion channel isoforms: hNav1.5 and hKv7.1 + minK (Anaxon AG, Bern, Switzerland), hCav1.2 (α1c + β2 + α2δ1) (B’SYS GmbH, Witterswil, Switzerland), and hKv11.1 (hERG) (Cytocentrics Bioscience GmbH, Rostock, Germany). The cell lines were grown in standard conditions (37 °C, 5% CO2, 90% humidity) in DMEM:F12 medium (D8900, Sigma-Aldrich, Burlington, MA, USA) buffered with 15 mM HEPES, containing 3.15 g/L D-glucose and 0.055 g/L sodium pyruvate, supplemented with 1.2 g/L sodium bicarbonate, 10% fetal bovine serum (F2442, Sigma-Aldrich, Burlington, MA, USA), 2 mM L-glutamine (G7513, Sigma-Aldrich, Burlington, MA, USA), 1% penicillin–streptomycin (P4333, Sigma-Aldrich, Burlington, MA, USA), and with specific antibiotics for selection of transfected cells or induction of gene expression according to manufacturers’ instructions. The medium was changed every 2–3 days and the cells were passed weekly upon detachment with trypsin–EDTA solution. All cell culture media and solutions were sterile filtered with 0.22 μm polyvinylidene fluoride filters. Ncyte® vCardiomyocytes (Ncardia, Leiden, The Netherlands) were cultured in 24-well plates precoated with bovine fibronectin, following manufacturer’s instructions. For the experiments, cardiomyocytes were detached as described previously and plated on ϕ 10 mm glass coverslips, like the other cell lines.
# Experiments on Ncyte® vCardiomyocytes were performed via an amphotericin-perforated whole-cell approach, filling the pipettes with solution containing amphotericin B 300 µg/mL except for a small region near the tip that contained amphotericin-free solution. The voltage-clamp and current-clamp protocols were similar to those used in our previous studies; the following protocols were recorded in sequence before and at 3 min after application of cenobamate in the bath to a final concentration of 200 µM: • - Nav standard protocol: holding −90 mV, depolarizing step at −10 mV lasting 40 ms; • - Cav-Nav separation protocol: holding −80 mV, first step at −20 mV 200 ms, intermediate step at −40 mV 100 ms, second step at −50 mV to +50 mV 200 ms, in 10 mV increments in consecutive sweeps; • - hERG standard protocol: holding −70 mV, a brief preliminary step at −50 mV 100 ms, first step at +40 mV 2000 ms, second step at −120 mV/−50 mV 2000 ms (in consecutive sweeps); • - A double voltage ramp protocol: holding −80 mV, first ramp from −120 mV to +80 mV in 2000 ms, second ramp from +80 mV back to −120 mV in 2000 ms, sweeps repeated at 10 s intervals; • - A current-clamp protocol with external pacing: 3 current stimuli of 2 nA amplitude, duration 0.5 ms (up to 2.5 ms in some experiments) applied at 3 s intervals, first stimulus at 500 ms after start of recording; in cells with spontaneous pace-making, this phenomenon was suppressed by applying a steady hyperpolarizing current of −10 pA or −20 pA. […]
structure (smiles),measurement,setting,value
NC(=O)O[C@@H](Cn1ncnn1)c1ccccc1Cl [cenobamate],"%ICaL peak change, mean (Table S8)",hiPSC-CM,35.16%
same,"%INa peak change, mean (Table S8)",hiPSC-CM,27.43%
same,"%If change, mean (Table S8)",hiPSC-CM,19.89%
same,"APD90 ceno, mean (Table S8)",initial mean 1212.99 ms,619.83 ms
same,average APD90 shortening (%APD90 change),"mean (SD), n = 5",28.55% and 28.6 ± 13.5%
